According to PMC9516332 (Frontiers in Oncology, 2022):

Legend:
Test in all cases: Kinase panel profiling at 1 µmol/L (MSA or IMAP), percentage inhibition
Format in all cases: biochemical
[1] = target: panel of 255 wild-type kinases (Homo sapiens, UniProt O00311); details: CDC7/ASK kinase assay; 1 µmol/L single concentration; read-out: %-inhibition CDC7/ASK
[2] = target: panel of 255 wild-type kinases (Homo sapiens, UniProt P35916); details: kinase FLT4; 1 µmol/L single concentration; read-out: %-inhibition at 1 µmol/L, FLT4
[3] = target: T1, panel of 255 wild-type kinases (Homo sapiens, UniProt P51813); details: BMX kinase assay; 1 µmol/L single concentration; read-out: %-inhibition BMX
T1 sequence (P51813 1-675): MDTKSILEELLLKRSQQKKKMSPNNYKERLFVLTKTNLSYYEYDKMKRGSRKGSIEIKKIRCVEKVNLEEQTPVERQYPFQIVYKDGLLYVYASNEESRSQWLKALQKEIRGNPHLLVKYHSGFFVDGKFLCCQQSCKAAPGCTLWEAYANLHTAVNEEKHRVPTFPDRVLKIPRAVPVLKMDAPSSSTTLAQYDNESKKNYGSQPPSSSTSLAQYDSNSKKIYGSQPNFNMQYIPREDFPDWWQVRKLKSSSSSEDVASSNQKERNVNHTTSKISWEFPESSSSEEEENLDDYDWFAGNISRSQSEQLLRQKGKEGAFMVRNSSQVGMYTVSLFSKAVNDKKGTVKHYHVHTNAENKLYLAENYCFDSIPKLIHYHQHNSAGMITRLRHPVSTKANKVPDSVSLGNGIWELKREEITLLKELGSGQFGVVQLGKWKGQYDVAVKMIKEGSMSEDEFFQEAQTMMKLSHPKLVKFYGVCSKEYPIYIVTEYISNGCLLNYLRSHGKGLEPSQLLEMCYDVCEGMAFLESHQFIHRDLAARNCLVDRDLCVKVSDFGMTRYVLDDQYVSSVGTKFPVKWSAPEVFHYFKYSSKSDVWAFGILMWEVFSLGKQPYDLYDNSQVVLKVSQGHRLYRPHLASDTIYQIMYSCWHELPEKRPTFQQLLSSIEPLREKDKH

[4] = target: panel of 255 wild-type kinases (Homo sapiens, UniProt P53350); details: kinase PLK1; 1 µmol/L single concentration; read-out: %-inhibition at 1 µmol/L, PLK1
[5] = target: panel of 255 wild-type kinases (Homo sapiens, UniProt P54764); details: kinase EPHA4; 1 µmol/L single concentration; read-out: %-inhibition at 1 µmol/L, EPHA4
[6] = target: T2, panel of 255 wild-type kinases (Homo sapiens, UniProt Q06418); details: kinase TYRO3; 1 µmol/L single concentration; read-out: %-inhibition at 1 µmol/L, TYRO3
T2 sequence (Q06418 41-890): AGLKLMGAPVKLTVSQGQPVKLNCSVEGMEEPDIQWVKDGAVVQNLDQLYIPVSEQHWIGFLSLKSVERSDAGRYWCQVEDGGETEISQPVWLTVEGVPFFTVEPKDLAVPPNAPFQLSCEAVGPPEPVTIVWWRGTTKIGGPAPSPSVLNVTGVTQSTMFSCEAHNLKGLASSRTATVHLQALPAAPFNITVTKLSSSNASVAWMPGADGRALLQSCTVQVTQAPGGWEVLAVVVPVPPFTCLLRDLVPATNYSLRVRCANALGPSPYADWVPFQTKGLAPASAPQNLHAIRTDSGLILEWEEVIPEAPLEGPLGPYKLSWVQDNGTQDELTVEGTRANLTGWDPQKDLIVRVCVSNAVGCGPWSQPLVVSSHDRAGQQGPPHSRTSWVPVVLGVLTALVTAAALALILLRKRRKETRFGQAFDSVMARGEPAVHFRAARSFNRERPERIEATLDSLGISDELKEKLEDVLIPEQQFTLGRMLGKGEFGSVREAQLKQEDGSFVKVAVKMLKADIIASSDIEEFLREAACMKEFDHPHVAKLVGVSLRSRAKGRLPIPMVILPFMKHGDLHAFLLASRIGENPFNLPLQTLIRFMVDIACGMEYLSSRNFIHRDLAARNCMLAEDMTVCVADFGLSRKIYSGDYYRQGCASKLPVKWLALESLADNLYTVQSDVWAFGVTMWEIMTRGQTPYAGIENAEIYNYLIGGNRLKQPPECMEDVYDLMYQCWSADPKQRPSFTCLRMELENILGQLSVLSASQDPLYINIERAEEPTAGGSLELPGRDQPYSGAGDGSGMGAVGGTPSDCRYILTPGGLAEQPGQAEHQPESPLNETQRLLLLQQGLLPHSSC

[7] = target: T3, panel of 255 wild-type kinases (Homo sapiens, UniProt Q9NWZ3); details: kinase IRAK4; 1 µmol/L single concentration; read-out: %-inhibition at 1 µmol/L, IRAK4
T3 sequence (Q9NWZ3 1-460): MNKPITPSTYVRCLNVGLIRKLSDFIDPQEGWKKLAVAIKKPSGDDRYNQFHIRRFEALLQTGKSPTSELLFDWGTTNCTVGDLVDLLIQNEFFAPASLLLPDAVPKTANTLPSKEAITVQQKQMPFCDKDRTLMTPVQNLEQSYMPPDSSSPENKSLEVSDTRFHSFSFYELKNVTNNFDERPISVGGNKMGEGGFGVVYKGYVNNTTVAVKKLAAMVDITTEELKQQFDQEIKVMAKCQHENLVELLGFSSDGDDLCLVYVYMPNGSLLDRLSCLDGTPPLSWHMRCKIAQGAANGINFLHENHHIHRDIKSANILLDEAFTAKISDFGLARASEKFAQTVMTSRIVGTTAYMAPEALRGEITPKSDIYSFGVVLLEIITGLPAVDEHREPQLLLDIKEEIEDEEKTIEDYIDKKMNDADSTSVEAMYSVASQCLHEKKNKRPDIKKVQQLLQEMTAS

[8] = target: panel of 255 wild-type kinases (Homo sapiens, UniProt Q9Y2H1); details: NDR2; 1 µmol/L single concentration; read-out: %-inhibition, NDR2

Row | SMILES | inhibition at 1 µM [1] [%] | inhibition at 1 µM [2] [%] | inhibition at 1 µM [3] [%] | inhibition at 1 µM [4] [%] | inhibition at 1 µM [5] [%] | inhibition at 1 µM [6] [%] | inhibition at 1 µM [7] [%] | inhibition at 1 µM [8] [%]
1 | O=C(Nc1cnn2ccc(N3CCC[C@@H]3c3cc(F)ccc3F)nc12)N1CC[C@H](O)C1 [larotrectinib] | -3.24 | -1 | 21 | -1.17 | -0.0271 | 5.58 | 1.67 | -4.33
2 | C[C@H]1Oc2cc(cnc2N)-c2c(nn(C)c2C#N)CN(C)C(=O)c2ccc(F)cc21 [lorlatinib] | -2 | 5 | 4 | 2.12 | 25 | 9 | -1.47 | 2.18
3 | CCN1C(=O)N(c2c(F)c(OC)cc(OC)c2F)Cc2cnc3[nH]c(CN4CCOCC4)cc3c21 [pemigatinib] | -3.54 | 99 | 1.44 | -1.52 | -1.83 | 4 | 0.22 | -1.83
4 | FC(F)(F)c1ccc(CNc2ccc(Cc3c[nH]c4ncc(Cl)cc34)cn2)cn1 [pexidartinib] | 0.521 | 66 | -0.565 | 6.33 | 1.65 | 10 | 37 | 8
5 | CCn1c(=O)c(-c2cc(NC(=O)Nc3ccccc3)c(F)cc2Br)cc2cnc(NC)cc21 [ripretinib] | 0.278 | 93 | 60 | 4 | 101 | 9.48 | -3.46 | 2.69

Further lines, results first:

Row | inhibition at 1 µM [1] [%] | inhibition at 1 µM [2] [%] | inhibition at 1 µM [3] [%] | inhibition at 1 µM [4] [%] | inhibition at 1 µM [5] [%] | inhibition at 1 µM [6] [%] | inhibition at 1 µM [7] [%] | inhibition at 1 µM [8] [%] | SMILES
6 | -1.05 | 99 | 82 | -2.47 | 52 | 97 | -0.786 | 0.23 | CO[C@]1(C(=O)N[C@@H](C)c2ccc(-n3cc(F)cn3)nc2)CC[C@H](c2nc(C)cc(Nc3cc(C)[nH]n3)n2)CC1 [pralsetinib]
7 | -2 | 101 | 12 | -0.437 | 58 | 99 | 1.9 | -4.53 | COc1ccc(CN2C3CC2CN(c2ccc(-c4cc(OCC(C)(C)O)cn5ncc(C#N)c45)cn2)C3)cn1 [selpercatinib]
8 | -0.0396 | 8 | 2.24 | -4 | -2.57 | 11 | -1.34 | -3.24 | Cn1cnc2c(F)c(Nc3ccc(Br)cc3Cl)c(C(=O)NOCCO)cc21 [selumetinib]
9 | -0.857 | 13 | 6.62 | -3.69 | -2.34 | 6 | 0.835 | -0.504 | Cc1cc(Nc2ncnc3ccc(NC4=NC(C)(C)CO4)cc23)ccc1Oc1ccn2ncnc2c1 [tucatinib]
